Reference: patent US11612587B2, “Composition for preventing or treating hair loss” (KYUNGPOOK NATIONAL UNIVERSITY INDUSTRY-ACADEMIC COOPERATION …, priority 2018, dated 2023)

What was measured:
[1] = tested on: human hair follicles; assay: toxicity / growth of cultured human hair follicle tissue treated with the compound alone; assay type: cell-based; settings: 6 days culture
Description: (§1) Human hair tissue was provided from the hair transplant center of Kyungpook National University and used for the experiment by separating the hair follicles from the scalp tissue with the consent of the hair transplant patient (IRB project number: KNUH2014-02-023). After treatment of each compound, human hair tissue was prepared by incubating a 37° C. CO2 incubator for 6 days using Williams E media (Sigma, USA) containing 2 mM L-glutamine, 100 U/ml streptomycin, and 10 ng/ml hydrocortisone and the length of growth was measured using a microscope.
(§2) The data from the above experiments were expressed as mean±SEM. For statistical processing, the mean deviation of each group was measured using Student's t-test, and it was considered significant at p<0.005 and p<0.05.

[2] = tested on: human hair follicles; assay: recovery of human hair follicle growth inhibition by 15d-PGJ2 in human hair follicle tissue culture; assay type: cell-based; settings: for hair follicle growth (hair follicle length when 15d-PGJ2 was treated alone as 100%): 6 days culture, FIG. 5
Description: as §1, §2

CCCCC/C=C/C=C1/C(=O)C=C[C@@H]1C/C=C\CCCC(=O)O [Compound 15d-PGJ2, 15-deoxy-Δ^12,14-prostaglandin J2, reference compound]
decrease of hair follicle growth ([1]; 15d-PGJ2 alone at 10 μM, FIG. 1): ⅓

CC(C)(C)OC(=O)CN1C(=O)C2(CCNC2=O)c2cc(Cl)ccc21 (stereo not shown) [Compound 2]
hair follicle growth inhibited by 15d-PGJ2 ([2]; Compound 2 0.5 μM, 1 μM simultaneously with 15d-PGJ2 (10 μM), vs 15d-PGJ2 only, FIG. 7): significantly increased
toxicity in human hair follicle tissue (hair follicle growth vs untreated group) ([1]; compound alone at 0.1 to 10 μM, FIG. 6): no significant difference

O=C(O)CN1C(=O)C2(CC(=O)N(Cc3cc(Cl)ccc3F)C2=O)c2cc(Cl)ccc21 (stereo not shown) [Compound 1]
hair follicle growth (hair follicle length when 15d-PGJ2 was treated alone as 100%) ([2]; 0.1 nM compound simultaneously with 15d-PGJ2 (10 μM)): 108%
hair follicle growth (hair follicle length when 15d-PGJ2 was treated alone as 100%) ([2]; 1 nM compound simultaneously with 15d-PGJ2 (10 μM)): 194%
hair follicle growth (hair follicle length when 15d-PGJ2 was treated alone as 100%) ([2]; 10 nM compound simultaneously with 15d-PGJ2 (10 μM)): 234%
toxicity in human hair follicle tissue (hair follicle growth vs untreated group) ([1]; compound alone at 0.1-10 nM, FIG. 4): no significant difference
